Laboratory results as given in ChEMBL document CHEMBL5036311, “X-ray Crystal Structure-Guided Design and Optimization of 7H-Pyrrolo[2,3-d]pyrimidine-5-carbonitrile Scaffold as a Potent and Orally Active Monopolar Spindle 1 Inhibitor” (J Med Chem, 2021).
Calls of active or inactive are those of the source. No cut-off for these calls is given here.

Columns and labels:
[1] = target: T1, Dual specificity protein kinase TTK (Homo sapiens) (UniProt P33981); assay: Binding affinity to human hexa-His tagged MPS1 (515 to 795 residue) expressed in Escherichia coli BL2I-DE3 cells assessed as change in melting temperature by thermal shift assay
T1 sequence (whole entry): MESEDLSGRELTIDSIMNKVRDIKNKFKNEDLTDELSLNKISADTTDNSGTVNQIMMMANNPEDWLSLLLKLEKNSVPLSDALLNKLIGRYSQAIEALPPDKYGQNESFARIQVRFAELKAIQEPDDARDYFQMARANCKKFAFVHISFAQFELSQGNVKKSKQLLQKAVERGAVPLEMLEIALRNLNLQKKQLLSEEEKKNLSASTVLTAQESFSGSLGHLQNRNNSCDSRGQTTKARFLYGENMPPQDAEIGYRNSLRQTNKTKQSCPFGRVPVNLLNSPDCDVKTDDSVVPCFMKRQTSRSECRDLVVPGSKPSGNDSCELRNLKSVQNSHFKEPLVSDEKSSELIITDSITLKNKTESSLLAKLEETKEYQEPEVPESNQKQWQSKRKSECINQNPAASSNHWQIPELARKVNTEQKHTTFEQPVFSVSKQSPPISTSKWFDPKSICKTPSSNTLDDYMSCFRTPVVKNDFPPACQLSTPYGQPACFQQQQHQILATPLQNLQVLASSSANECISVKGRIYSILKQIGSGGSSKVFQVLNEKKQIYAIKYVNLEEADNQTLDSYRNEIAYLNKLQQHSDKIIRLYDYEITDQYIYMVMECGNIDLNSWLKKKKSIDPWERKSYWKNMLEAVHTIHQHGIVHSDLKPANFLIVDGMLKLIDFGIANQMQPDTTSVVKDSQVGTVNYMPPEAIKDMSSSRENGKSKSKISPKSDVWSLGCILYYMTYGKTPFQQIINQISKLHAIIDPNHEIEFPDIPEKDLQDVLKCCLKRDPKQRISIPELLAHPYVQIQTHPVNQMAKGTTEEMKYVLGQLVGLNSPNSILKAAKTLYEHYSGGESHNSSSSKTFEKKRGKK

[2] = system: MDA-MB-231; assay: Growth inhibition of human MDA-MB-231 cells measured after 5 days by CellTiter-Glo assay; format: functional; conditions: time 5 day; for GI50: Homo sapiens, MDA-MB-231, 120 h
[3] = Oral bioavailability in ICR mouse at 10 mg/kg; format: ADME, organism-based; conditions: in vivo
[4] = AUC in ICR mouse at 10 mg/kg, po; format: ADME, organism-based; design: dose 10 mg/kg; conditions: in vivo
[5] = Toxicity in athymic mouse xenografted with human MDA-MB-231 cells assessed as effect on body weight at 2 mg/kg administered daily and measured twice a week; format: organism-based; conditions: in vivo
[6] = target: T1, Dual specificity protein kinase TTK (Homo sapiens); assay: Inhibition of human […] assessed as reduction in histone H3 phosphorylation at 0.1 to 10 uM by Western blot analysis; conditions: dose 0.1-10 µM
[7] = Half life in ICR mouse at 10 mg/kg, po; format: ADME, organism-based; conditions: in vivo
[8] = Toxicity in athymic mouse xenografted with human MDA-MB-231 cells assessed as change in intestine morphology at 2 mg/kg administered daily and measured twice a week; format: organism-based; conditions: in vivo
[9] = Toxicity in athymic mouse xenografted with human MDA-MB-231 cells assessed as body weight gain at 2 mg/kg administered daily and measured twice a week (reference value: 15.5 %); format: organism-based; conditions: in vivo
[10] = Metabolic stability in human liver microsomes assessed as compound remaining after 30 mins; format: ADME, Microsome; conditions: read-out: Stability
[11] = system: MDA-MB-231; assay: Antitumor activity against human MDA-MB-231 cells xenografted in athymic mouse model assessed as tumor growth inhibition at 2 mg/kg administered daily and measured twice a week; format: functional; conditions: read-out: TGI
[12] = target: T2, Dual specificity protein kinase TTK (Homo sapiens, UniProt P33981); assay: Inhibition of human hexa-His tagged MPS1 (515 to 795 residue) expressed in Escherichia coli BL2I-DE3 cells incubated for 4 hrs in presence of ATP by ADP-glo luminescence assay
T2 sequence (P33981 whole entry): T1 sequence (whole entry)

[13] = target: T1, Dual specificity protein kinase TTK (Homo sapiens); assay: Inhibition of human […] assessed as reduction in MPS1 autophosphorylation at 0.1 to 10 uM by Western blot analysis; conditions: dose 0.1-10 µM
[14] = Cmax in ICR mouse at 10 mg/kg, po; format: ADME, organism-based; design: route oral, dose 10 mg/kg; conditions: in vivo

Compound | ΔTm [1] | GI50 [2] | GI90 [2] | also measured
COc1cc(N2CCCC2=O)ccc1Nc1nc(NCC(C)C)c2c(C#N)c[nH]c2n1 | 13.8 °C | 20 nM | 122 nM | 
COc1cc(N2CCCC2=O)ccc1Nc1nc(NC2CCCCC2)c2c(C#N)c[nH]c2n1 | 18.3 °C | 11 nM | 37 nM | bioavailability [3]: 61%; AUC [4]: 6150 ng·h/mL; Activity [5]: Non-Toxic; inhibition [6]: Active; half-life [7]: 1.1 h; Activity [8]: Non-Toxic; Activity [9]: 7.6%; remaining at 0.5 h [10]: 60%; inhibition in vivo at 2 mg/kg [11]: 57%; IC50 [12]: 6.4 nM; inhibition [13]: Active; Cmax [14]: 2220 ng/mL
COc1cc(N2CCCC2=O)ccc1Nc1nc(NC2CCOCC2)c2c(C#N)c[nH]c2n1 | 14.8 °C | > 1000 nM | >1000 nM | 
N#Cc1c[nH]c2nc(Nc3ccc(N4CCCC4=O)cn3)nc(NC3CCCCC3)c12 | 13.8 °C | 364 nM | 668 nM | 
Cc1cc(N2CCOCC2)ccc1Nc1nc(NC2CCCCC2)c2c(C(F)(F)F)c[nH]c2n1 | 17.2 °C | > 1000 nM | >1000 nM | 
Cc1cc(N2CCOCC2)ccc1Nc1nc(NC2CCCCC2)c2c(C#N)c[nH]c2n1 | 19.9 °C | 17 nM | 313 nM | bioavailability [3]: 44%; AUC [4]: 1270 ng·h/mL; half-life [7]: 1.2 h; remaining at 0.5 h [10]: 57%; IC50 [12]: 6.3 nM; Cmax [14]: 749 ng/mL
CNc1nc(Nc2ccc(N3CCCC3=O)cc2OC)nc2[nH]cc(C#N)c12 | 7.3 °C | 637 nM | >1000 nM | 
COc1cc(N2CCCC2=O)ccc1Nc1nc(NC(C)C)c2c(C#N)c[nH]c2n1 | 14.2 °C | 10 nM | 481 nM | 
COc1cc(N2CCCC2=O)ccc1Nc1nc(NC2CCCCC2)c2cc[nH]c2n1 | 15.3 °C | 55 nM | 380 nM | 
COc1cc(N2CCCC2=O)ccc1Nc1nc(NCC2CCC2)c2c(C#N)c[nH]c2n1 | 15.2 °C | > 1000 nM | >1000 nM | 
Cn1cc(Nc2nc(NC3CCCCC3)c3c(C#N)c[nH]c3n2)cn1 | 15.2 °C | 109 nM | >1000 nM | 
CC[C@H](C)Nc1nc(Nc2ccc(N3CCCC3=O)cc2OC)nc2[nH]cc(C#N)c12 | 15.1 °C | 96 nM | 328 nM | 
N#Cc1c[nH]c2nc(Nc3ccc(N4CCCC4=O)cc3)nc(NC3CCCCC3)c12 | 17.2 °C | 46 nM | 67 nM | 
Cc1cc(N2CCOCC2)ccc1Nc1nc(NC2CCCCC2)c2c(Cl)c[nH]c2n1 | 18.1 °C | 129 nM | >1000 nM | 
COc1cc(C(=O)N2CCOCC2)ccc1Nc1nc(NC2CCCCC2)c2c(C#N)c[nH]c2n1 | 16.1 °C | 3 nM | 43 nM | bioavailability [3]: 98%; AUC [4]: 3770 ng·h/mL; half-life [7]: 2.6 h; remaining at 0.5 h [10]: 56%; IC50 [12]: 3.2 nM; Cmax [14]: 995 ng/mL
COc1cc(N2CCOCC2=O)ccc1Nc1nc(NC2CCCCC2)c2c(C#N)c[nH]c2n1 | 17.2 °C | 10 nM | >1000 nM | 
CCCCNc1nc(Nc2ccc(N3CCCC3=O)cc2OC)nc2[nH]cc(C#N)c12 | 11.2 °C | 18 nM | 267 nM | 
COc1cc(N2CCCC2=O)ccc1Nc1nc(NC2CCCCC2)c2c(C(F)(F)F)c[nH]c2n1 | 15.1 °C | 327 nM | >1000 nM | 
COCC(C)(C)Nc1nc(Nc2ccc(N3CCCC3=O)cc2OC)nc2[nH]cc(C#N)c12 | 15.1 °C | 916 nM | >1000 nM | 
COc1cc(N2CCCC2=O)ccc1Nc1nc(NC2CCCC2)c2c(C#N)c[nH]c2n1 | 17.1 °C | 25 nM | 383 nM | 
COc1cc(N2CCCC2=O)ccc1Nc1nc(NCC(C)(C)C)c2c(C#N)c[nH]c2n1 | 14.4 °C | 149 nM | >1000 nM | 
CCOc1cc(N2CCCC2=O)ccc1Nc1nc(NC2CCCCC2)c2c(C#N)c[nH]c2n1 | 16.9 °C | 108 nM | 478 nM | 
COc1cc(N2CCCC2=O)ccc1Nc1nc(NC2CCC2)c2c(C#N)c[nH]c2n1 | 14.3 °C | > 1000 nM | >1000 nM | 
COc1cc(N2CCCC2=O)ccc1Nc1nc(NCC2CCCC2)c2c(C#N)c[nH]c2n1 | 15.2 °C | 171 nM | >1000 nM | 
